Laboratory results reported in publication PMC8717366, “Synthesis and Pharmacological Characterization of Visabron, a Backbone Cyclic Peptide Dual Antagonist of α4β1 (VLA-4)/α9β1 Integrin for Therapy of Multiple Sclerosis” (JACS Au, 2021).
Where two headings read alike, the source gives them in different places. Numbered stars: 1 amine (or outer) side, 2 acyl side, 3 side chain; on linkers, the order of the positions; unused ones are H or OH. Bridge positions count the residues as written; N and C are the ends. Square brackets hold non-standard residues; d marks the D form. Peptide text beside a SMILES is read from it. N(2-Aminoethyl)Gly = O=C(CN(CCN[*:3])[*:1])[*:2]; CO = O=C([*:1])[*:2]; Nlys = NCCCCNCC(=O)O

What was measured:
[1] = test system: U937 macrophages-VCAM-1 (α4β1, αMβ2, α3β1, α6β1); experiment: Adhesion of U937 macrophages to immobilized VCAM-1; format: cell-based, human
Method: Cell adhesion assay was carried out as previously described[47] with minor modifications. The day before the experiment, each well was coated with VCAM-1 (3 mg/mL) immobilized on the 96-well plate in PBS by overnight incubation at 4 °C. Thereafter, nonspecific binding was blocked by incubating the wells with 1% (w/v) bovine serum albumin (BSA) in Hank’s Balanced Salt Solution (HBSS) containing 5 mM MgCl2 at room temperature for 1 h before use. The cells were labeled by incubation with 12.5 μM 5-chloromethylfluorescein diacetate (CMFDA) in HBSS without 1% BSA at 37 °C for 30 min. The labeled cells were then centrifuged at 1000 rpm and washed twice with HBSS containing 1% BSA to remove excess CMFDA. Labeled cells (about 1 × 10^5 cells/well) were plated on each well in the presence or absence of visabrons and incubated at 37 °C for 60 min. Unbound cells were removed by washing the wells three times with 1% (w/v) BSA in HBSS, and bound cells were lysed by the addition of 0.5% Triton X-100 (diluted in DDW). The fluorescence in each well was quantified with a SPECTRAFluor Plus plate reader (Tecan), at λex = 485 nm and λem = 530 nm. To determine the number of adhered cells from the fluorescence values, a standard curve was generated by serial dilution of known numbers of CMFDA-labeled cells.

[2] = test system: SafetyScreen44 targets; experiment: SafetyScreen44 off-target panel (44 binding, enzymatic and transporter assays); settings: 1 mM; threshold of 40% for binding competition; Figure 5
Method: Screening of potentially significant off-target effects to binding and enzyme targets was performed via SafetyScreen44 offered by Eurofins Cerep-Panlabs. Visabron c (4–4) was tested at 1 and 0.1 mM. Compound binding was calculated as the percentage of inhibition of the binding of a radioactively labeled ligand specific for each target. The compound enzyme inhibitory effect was calculated as the percentage of inhibition of control enzyme activity. Results showing inhibition higher than 40% were considered to represent significant effects of the tested compound. Results showing inhibition lower than 25% as obtained with 0.1 mM Visabron c (4–4) were not considered significant and were mostly attributable to the variability of the signal around the control level. In each experiment, the respective reference compound was tested concurrently with visabron c (4–4), and the data were compared with historical values determined at Eurofins. The experiment was statistically accepted in accordance with the Eurofins validation standard operating procedure.

[3] = target: T1, Abl (Homo sapiens, UniProt P00519); experiment: PhosphoSens CSox-based kinase assay, Abl; format: biochemical; settings: 1 mM, but not 0.1 mM; Figure 7
T1 construct: purchased Carna 08-001
T1 sequence (P00519 whole entry): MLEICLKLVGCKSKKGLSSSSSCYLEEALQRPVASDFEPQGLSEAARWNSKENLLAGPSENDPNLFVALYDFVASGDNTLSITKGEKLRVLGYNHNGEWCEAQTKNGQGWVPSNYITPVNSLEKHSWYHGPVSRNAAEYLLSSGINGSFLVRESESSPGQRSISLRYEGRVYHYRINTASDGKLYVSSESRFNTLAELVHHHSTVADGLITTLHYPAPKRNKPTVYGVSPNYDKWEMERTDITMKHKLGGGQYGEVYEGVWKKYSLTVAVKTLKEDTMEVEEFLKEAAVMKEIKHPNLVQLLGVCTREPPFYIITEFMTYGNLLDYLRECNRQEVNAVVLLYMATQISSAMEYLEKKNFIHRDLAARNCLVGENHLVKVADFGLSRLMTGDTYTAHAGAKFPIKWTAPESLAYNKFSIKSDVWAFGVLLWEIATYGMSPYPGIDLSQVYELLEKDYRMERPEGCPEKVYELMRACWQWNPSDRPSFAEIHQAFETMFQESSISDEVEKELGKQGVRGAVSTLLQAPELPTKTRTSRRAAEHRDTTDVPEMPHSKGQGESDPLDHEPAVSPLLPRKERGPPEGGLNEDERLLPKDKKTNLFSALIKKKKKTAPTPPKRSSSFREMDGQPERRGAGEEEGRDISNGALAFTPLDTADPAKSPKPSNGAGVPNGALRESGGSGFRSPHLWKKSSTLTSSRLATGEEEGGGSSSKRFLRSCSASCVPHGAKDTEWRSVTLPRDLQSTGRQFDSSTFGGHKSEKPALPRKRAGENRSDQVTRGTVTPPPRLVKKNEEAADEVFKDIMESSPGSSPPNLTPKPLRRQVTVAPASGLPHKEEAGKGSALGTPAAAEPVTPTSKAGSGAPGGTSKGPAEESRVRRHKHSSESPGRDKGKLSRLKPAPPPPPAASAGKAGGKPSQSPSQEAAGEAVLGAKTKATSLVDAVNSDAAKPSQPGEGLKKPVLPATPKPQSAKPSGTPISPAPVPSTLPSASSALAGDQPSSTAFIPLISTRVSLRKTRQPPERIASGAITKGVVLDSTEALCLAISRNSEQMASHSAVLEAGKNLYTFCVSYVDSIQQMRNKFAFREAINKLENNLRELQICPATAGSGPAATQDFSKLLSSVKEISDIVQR
Method: (§1) Kinase activity was measured using the PhosphoSenstechnology (AssayQuant Technologies Inc., Marlborough, MA) as detailed in the Supporting Information. […]
(§2) Visabron c (4-4) safety by in vitro evaluation using PhosphoSens - CSox based kinase assays:
(§3) A powerful method was used to measure the activity of recombinant protein kinases using a homogeneous and continuous (kinetic) format, where the level of chelation-enhanced fluorescence (CHEF) that is directly proportional to the amount of phosphorylated, real-time sensors consisting of sulfonamido-oxine (Sox) chromophore, linked to a peptide or protein substrates of selective kinases 6. […]
(§4) Kinase activity measurements: Kinase activity was measured continuously using the PhosphoSens® technology (AssayQuant Technologies Inc., Marlborough, MA) according to the manufacturers’ recommendations. This one-step homogeneous assay format uses chelation -enhanced fluorescence via optimized substrate sensors containing the unnatural fluorogenic amino -acid Sox. […]
(§5) Final reaction conditions : Protein kinase activity was determined in 54 mM HEPES, pH 7.5, 1 mM ATP, 1.2 mM DTT, 0.012% Brij-35, 0.52 mM EGTA, 10 mM MgCl2, 1% glycerol, 0.2mg/ml BSA, and 15 μM Sox -based sensor. […]

[4] = target: T2, C-Raf (Homo sapiens, UniProt P04049, Y340D/Y341D); experiment: PhosphoSens CSox-based kinase assay, C-Raf; format: biochemical; settings: 1 mM, but not 0.1 mM; Figure 7
T2 construct: purchased Thermo PV3805
T2 sequence (P04049 whole entry Y340D/Y341D): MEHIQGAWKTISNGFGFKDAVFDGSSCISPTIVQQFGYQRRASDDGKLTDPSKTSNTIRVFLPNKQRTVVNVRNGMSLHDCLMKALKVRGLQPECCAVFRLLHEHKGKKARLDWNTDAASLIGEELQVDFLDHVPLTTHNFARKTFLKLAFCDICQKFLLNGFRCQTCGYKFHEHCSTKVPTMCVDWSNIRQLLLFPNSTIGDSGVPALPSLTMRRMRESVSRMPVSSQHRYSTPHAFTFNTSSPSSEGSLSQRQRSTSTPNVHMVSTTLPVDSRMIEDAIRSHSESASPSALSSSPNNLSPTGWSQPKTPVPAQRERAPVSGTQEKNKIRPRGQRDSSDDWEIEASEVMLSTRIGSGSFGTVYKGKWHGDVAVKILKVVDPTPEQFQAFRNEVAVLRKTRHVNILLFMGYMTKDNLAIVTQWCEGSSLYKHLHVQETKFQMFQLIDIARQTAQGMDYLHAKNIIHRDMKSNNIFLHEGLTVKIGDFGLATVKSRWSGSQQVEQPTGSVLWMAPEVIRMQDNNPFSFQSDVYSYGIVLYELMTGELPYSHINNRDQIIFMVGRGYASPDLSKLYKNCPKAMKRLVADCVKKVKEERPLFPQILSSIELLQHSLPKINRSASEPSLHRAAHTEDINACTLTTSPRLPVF
Method: as §1, §2, §3, §4, §5

[5] = U937 treated with PMA (10 ng/mL) for 24 h, read-out: IC50 U937 macrophages-VCAM-1 PMA
[6] = untreated U937, read-out: IC50 U937 macrophages-VCAM-1 control

Row | SMILES | IC50 [1, 5] | IC50 [1, 6] | Interaction with the majority of the physiological targets [2] | inhibition at 1000 µM [3] | inhibition at 1000 µM [4]
1 | CSCC[C@@H]1NC(=O)[C@H]([C@@H](C)O)NC(=O)CN(C(=O)[C@@H](N)CCCCN)CCNC(=O)NCCN(CC(=O)N[C@@H](CC(C)C)C(N)=O)C(=O)[C@H](CC(=O)O)NC(=O)[C@H](CC(C)C)NC1=O [visabron c (2–2)] (H-K[N(2-Aminoethyl)Gly]TMLD[N(2-Aminoethyl)Gly]L-NH2; linker 2-7 via CO) | 16 µM | 53 µM | – | – | –
2 | CSCC[C@@H]1NC(=O)[C@H]([C@@H](C)O)NC(=O)CN(C(=O)[C@@H](N)CCCCN)CCCCNC(=O)NCCCCN(CC(=O)N[C@@H](CC(C)C)C(N)=O)C(=O)[C@H](CC(=O)O)NC(=O)[C@H](CC(C)C)NC1=O [visabron c (4–4)] (H-K[Nlys]TMLD[Nlys]L-NH2; linker 2-7 via CO) | 10 µM | 11 µM | did not interact | 25 to 40% | 25 to 40%
